Test results published in patent US4187245A, “Hydroxypropylene-amino-phosphonic-sulfonic acids” (Petrolite Corporation, priority 1978, dated 1980).
Where a name gives a salt, the structure may show the parent alone.

Tests used:
[1] = Calcium Scale Inhibition Test; details: 180° F., samples at 2 and 4 hours
Procedure: Calcium Scale Inhibition Test
The procedure utilized to determine the effectiveness of scale inhibitors in regard to calcium scale is as follows:
Several 50 ml. samples of a 0.04 sodium bicarbonate solution are placed in 100 ml. bottles. To these solutions is added the inhibitor in various known concentrations. 50 ml. samples of a 0.02 M CaCl2 solution are then added.
A total hardness determination is then made on the 50--50 mixture utilizing the well known Schwarzenbach titration. The samples are placed in a water bath and heated at 180° F. 10 ml. samples are taken from each bottle at 2 and 4 hour periods. These samples are filtered through millipore filters and the total hardness of the filtrates are determined by titration. [formula]

[2] = prior-art background; cited from earlier work

Row | Compound | % Inhibition (Calcium Scale Inhibition) ([1]; 50 ppm) [%] | % Inhibition (Calcium Scale Inhibition) ([1]; 25 ppm) [%] | further results
1 | O=S(=O)(O)CC(O)CNCCNCC(O)CS(=O)(=O)O (stereo not drawn) [Example 8] | 45 |  | 
2 | O=P(O)(O)CN(CCN(CC(O)CS(=O)(=O)O)CP(=O)(O)O)CC(O)CS(=O)(=O)O (stereo not drawn) [Example 17] | 100 | 96 | % Inhibition (Calcium Scale Inhibition) ([1]; 15 ppm): 72%
3 | O=P(O)(O)CN(CCN(CC(O)CS(=O)(=O)O)CP(=O)(O)O)CCN(CC(O)CS(=O)(=O)O)CP(=O)(O)O (stereo not drawn) [Example 19] | 100 | 86 | 
4 | O=C(O)CN(CCN(CC(=O)O)CC(=O)O)CC(=O)O [ethylenediamine tetracetic acid salts] |  |  | threshold activities [2]: no threshold activities
5 | NCCNCC(O)CS(=O)(=O)O (stereo not drawn) [Example 7] | 50 |  | 
6 | O=P(O)(O)CN(CCN(CP(=O)(O)O)CP(=O)(O)O)CC(O)CS(=O)(=O)O (stereo not drawn) [Example 16] |  | 100 | % Inhibition (Calcium Scale Inhibition) ([1]; 10 ppm): 91%
7 | NCCNCCNCC(O)CS(=O)(=O)O (stereo not drawn) [Example 9] | 45 |  | 
8 | O=S(=O)(O)CC(O)CNCCNCCNCC(O)CS(=O)(=O)O (stereo not drawn) [Example 10] |  | 45 | 
